Laboratory results: patent US11691984B2, “Compounds and methods for DCAF-mediated protein degradation” (The Scripps Research Institute, priority 2018, dated 2023)

Columns and labels:
DCAF16 = target: T1, DCAF16 (Homo sapiens, UniProt Q9NXF7); test: LC-MS/MS detection of KB02-PEG0-SLF-modified tryptic peptides on DCAF16; assay type: binding; conditions: HA-DCAF16-transfected HEK293T, 10 μM, 2 h
T1 construct: endogenously expressed DCAF16 in HEK293T cells; endogenous in cells; host or cells: HEK293T
Procedure: HEK293T cells were transfected with HA-DCAF16 plasmid by PEI transfection reagent for 24 h and treated with DMSO or 10 μM KB02-PEG0-SLF for 2 h. Cells were collected and lysed in 1% NP-40 lysis buffer with complete protease inhibitor cocktail. HA immunoprecipitation was performed with 10 mg of total protein lysates to purify HA-DCAF16. After washing the HA resin three times with IP washing buffer and once with PBS, HA-DCAF16 protein was eluted by heating at 65° C. for 10 min with 8M urea in PBS, then reduced with 12.5 mM DTT at 65° C. for 15 min and alkylated with 25 mM iodoacetamide at 37° C. for 30 min. The protein solution was diluted with PBS to 2M urea and digested with 2 μg trypsin at 37° C. for 6 h. Tryptic peptides were acidified with 5% formic acid and loaded onto a silica capillary column (250 μm) packed with 3 cm of C18 resin (Aqua 5 Phenomenex). Peptides were analyzed on LTQ-Orbitrap Elite mass spectrometer (Thermo Scientific) coupled with a Thermo UltiMate 3000 UHPLC system. Peptides were separated on a capillary column packed with 10 cm of C18 resin (Aqua 5 Phenomenex) and a 5 μm tip. The flow rate was 0.5 μL/min. […]

FLAG-FKBP12_NLS = FLAG-FKBP12_NLS (Homo sapiens, UniProt P62942); test: Western blot of stably expressed FLAG-FKBP12_NLS in MDA-MB-231 cells; assay type: cell-based; set-up: expressed in transfected cells; host or cells: HEK293T, MDA-MB-231 and HEK293 DCAF16+/+ and DCAF16-/- clones (lentiviral pCDH-CMV-MCS-EF1-Puro); conditions: 1 μM, 8 hours
Procedure: FLAG-FKBP12 or FLAG-FKBP12_NLS lentivirus was generated by co-transfection of FLAG-FKBP12 or FLAG-FKBP12_NLS, pCMV-dR8.2 and pMD2.G into HEK 293T cells using FuGene 6 transfection reagent (Promega). Virus-containing medium were collected 48 h after transfection, filtered with […] filter, and used to transduce HEK293T and MDA-MB-231 cells in the presence of 10 μg/mL polybrene (Santa Cruz). 72 h after transduction, puromycin (2 μg/mL) was added to cells. HEK293T cells stably expressing FLAG-FKBP12 or FLAG-FKBP12_NLS were obtained after puromycin selection for 7 days. HEK293T cells stably expressing pCDH empty vector were generated in parallel as control.
(§1) Cells were collected and lysed in 1% NP-40 lysis buffer (25 mM Tris-HCl pH 7.4, 150 mM NaCl, 10% glycerol, 1% Nonidet P-40) with complete protease inhibitor cocktail (Roche). Cells were vortexed and sonicated for 5 pulses (40%, 4). The supernatant was collected after centrifugation at 16,000 g for 10 min at 4° C. Protein concentration was determined by DC assay (Bio-Rad). Protein lysate was heated at 95° C. for 5 min in 1× Laemmli sample buffer. Proteins were resolved by 12% or 14% Novex Tris-Glycine Mini Gels (Invitrogen) and transferred to polyvinylidene fluoride (PVDF) membrane (0.2 Bio-Rad). The membrane was blocked with 5% BSA in TBST buffer (0.1% Tween 20, 20 mM Tris-HCl 7.6, 150 mM NaCl) at room temperature for 1 h. The antibody was diluted with fresh 5% BSA in TBST buffer (1:10000 dilution for FLAG, HA and β-Actin, 1:1000 dilution for others) and incubated with membrane (1 h room temperature for FLAG, HA and β-Actin, overnight 4° C. for others). Membrane was washed three times with TBST buffer and incubated with secondary antibody (1:5000 dilution in 5% BSA in TBST) at room temperature for 1 h. Membrane was washed three times with TBST buffer. The chemiluminescence signal in membrane was recorded after developing in ECL or ECL plus western blotting detection reagent using CL-XPosure film (Thermo Scientific). Relative band intensities were quantified using ImageJ.

[1] = target: T2, HA-DCAF16 and FLAG-FKBP12_NLS (Homo sapiens, UniProt P62942+Q9NXF7); test: Co-immunoprecipitation of HA-DCAF16 with FLAG-FKBP12_NLS (ternary complex) in HEK293T cells; assay type: cell-based; conditions: 5 μM, MG132 10 μM, 2 hours
T2 construct: expressed in transfected cells; host or cells: HEK293T stably expressing FLAG-FKBP12_NLS, transiently transfected with HA-DCAF16 (pRK5)
Procedure: as §1
Cells were collected and lysed in 1% NP-40 lysis buffer with complete protease inhibitor cocktail on ice for 10 min, followed by 5 pulses of sonication (40%, 4). After centrifugation at 16,000 g for 10 min at 4° C., the supernatant was collected. FLAG affinity gel (20 μL slurry per sample) was incubated with protein lysates at 4° C. for 1 h and washed four times with IP washing buffer. The affinity gel was heated at 95° C. for 10 min in 2× Laemmli sample buffer, followed by western blot analysis.

T1 sequence (Q9NXF7 whole entry): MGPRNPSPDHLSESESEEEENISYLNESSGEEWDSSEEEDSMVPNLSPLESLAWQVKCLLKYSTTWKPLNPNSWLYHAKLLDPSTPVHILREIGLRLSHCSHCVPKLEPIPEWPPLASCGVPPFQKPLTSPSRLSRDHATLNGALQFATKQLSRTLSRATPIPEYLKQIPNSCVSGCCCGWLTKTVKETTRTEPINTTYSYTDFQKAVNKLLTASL
T2 sequence (Q9NXF7 whole entry): as above
T2 sequence (P62942 2-108): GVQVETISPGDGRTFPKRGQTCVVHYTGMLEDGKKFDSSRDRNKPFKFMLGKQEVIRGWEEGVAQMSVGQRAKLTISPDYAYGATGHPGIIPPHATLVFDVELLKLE
T2 sequence (Q16531 whole entry partner): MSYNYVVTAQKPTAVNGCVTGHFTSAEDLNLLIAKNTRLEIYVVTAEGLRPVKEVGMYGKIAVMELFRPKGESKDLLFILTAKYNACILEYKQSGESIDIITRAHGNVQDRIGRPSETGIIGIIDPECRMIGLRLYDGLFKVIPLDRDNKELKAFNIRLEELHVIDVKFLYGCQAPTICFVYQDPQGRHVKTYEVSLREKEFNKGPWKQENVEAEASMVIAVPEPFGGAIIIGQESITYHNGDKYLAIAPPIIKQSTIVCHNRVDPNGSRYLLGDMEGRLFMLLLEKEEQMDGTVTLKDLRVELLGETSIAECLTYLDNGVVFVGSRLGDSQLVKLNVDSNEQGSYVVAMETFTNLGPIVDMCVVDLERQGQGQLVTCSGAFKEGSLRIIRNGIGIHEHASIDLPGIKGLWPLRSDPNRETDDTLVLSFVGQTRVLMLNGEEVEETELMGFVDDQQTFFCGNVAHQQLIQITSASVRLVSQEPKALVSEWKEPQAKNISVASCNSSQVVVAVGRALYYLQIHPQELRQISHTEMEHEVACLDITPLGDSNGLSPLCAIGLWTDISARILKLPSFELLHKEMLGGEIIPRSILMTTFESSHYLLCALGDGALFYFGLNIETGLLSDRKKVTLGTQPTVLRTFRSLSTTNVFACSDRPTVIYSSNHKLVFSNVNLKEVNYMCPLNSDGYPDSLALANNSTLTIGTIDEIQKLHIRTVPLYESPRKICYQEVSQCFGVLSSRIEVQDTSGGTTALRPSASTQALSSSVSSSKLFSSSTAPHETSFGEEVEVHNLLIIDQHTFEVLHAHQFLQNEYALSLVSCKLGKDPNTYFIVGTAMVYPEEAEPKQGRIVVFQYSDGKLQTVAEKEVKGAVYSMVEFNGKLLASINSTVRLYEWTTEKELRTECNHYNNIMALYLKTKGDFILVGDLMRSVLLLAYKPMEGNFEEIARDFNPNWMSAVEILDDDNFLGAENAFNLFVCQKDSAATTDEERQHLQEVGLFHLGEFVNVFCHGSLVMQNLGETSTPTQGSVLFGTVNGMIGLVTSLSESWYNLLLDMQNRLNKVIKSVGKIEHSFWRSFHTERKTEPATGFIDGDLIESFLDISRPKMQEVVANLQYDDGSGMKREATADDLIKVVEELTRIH
Sequence of FLAG-FKBP12_NLS (P62942 whole entry): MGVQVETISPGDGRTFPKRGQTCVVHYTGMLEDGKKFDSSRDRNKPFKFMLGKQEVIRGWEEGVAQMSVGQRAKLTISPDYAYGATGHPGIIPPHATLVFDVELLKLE

co-immunoprecipitation of HA-DCAF16 with FLAG-FKBP12_NLS [1]: co-immunoprecipitated with HA-DCAF16
Structure (SMILES): CCC(C)(C)C(=O)C(=O)N1CCCC[C@H]1C(=O)O[C@H](CCc1ccc(OC)c(OC)c1)c1cccc(NC(=O)COc2ccc3c(c2)CCCN3C(=O)CCl)c1 [KB02-PEG0-SLF, (R)-1-(3-(2-((1-(2-chloroacetyl)-1,2,3,4-tetrahydroquinolin-6-yl)oxy)acetamido)phenyl)-3-(3,4-dimethoxyphenyl)propyl (5)-1-(3,3-dimethyl-2-oxopentanoyl)piperidine-2-carboxylate]
modified DCAF16 tryptic peptide identified (DCAF16): tryptic peptide (aa 168-184) containing C173 and C177-179 | degradation of FLAG-FKBP12_NLS in MDA-MB-231 cells (FLAG-FKBP12_NLS): degradation of stably expressed FLAG-FKBP12_NLS
